# Results from patent US20080176963A1, “TREATMENT OF BRAIN DISORDERS OF THE STRIATUM” (priority 2007, published 2008).
# Where two headings read alike, the source gives them in different places.
# Columns and labels:
# [1] = tested on: indirect-pathway MSN synapses; type: cell-based, mouse
# 6-OHDA-treated mice [2] = type: in vivo, mouse
# Method: (§1) Dopamine depletion and behaviour. Reserpine was administered i.p. at a concentration of 1 or 5 mgkg^−1, and electrophysiological and behavioural experiments were performed 18-24 h after injections. 6-Hydroxydopamine was injected bilaterally into the median forebrain bundle at a concentration of 5 μg μl^−1 to a total volume of 2 μL per side, and experiments were performed 48-60 h after injections. Catalepsy was measured with the bar test. Descent latency represents the time in seconds required for the mouse either to remove both paws from a bar (diameter 2 mm) placed 4 cm above the ground, or for one paw to touch the ground. Horizontal locomotor activity was measured in 15-min blocks with the ENV-510 test chamber and Activity Monitor software. Animals were tested 45-60 min after drug administration. All procedures involving animals were approved by the Institutional Animal Care and Use Committee.
# (§2) 6-hydroxydopamine treatment Bilateral lesions of the substantia nigra pars compacta were achieved by injecting 6-OHDA Bromide (Sigma-Aldrich) into the right and left medial forebrain bundles. Mice were anesthetized with i.p. injections of ketamine (100 mg/kg)/xylazine (10 mg/kg) and placed into a stereotactic frame. 6-OHDA was prepared immediately before injections at a concentration of 5 μg/μL in 0.02% ascorbic acid. Injections were performed using 33 gauge cannulae (Plastics One) attached to a syringe pump (Harvard Apparatus) running at 0.5 μL/min, to a total volume of 2 μL/side at the following coordinates: AP: −1.5 mm; ML±1 mm; DV: 4.8 mm. Brain slices were obtained from 6-OHDA treated animals at 48-60 hour after injections.
# (§3) Behavior. 3- to 4-week-old C57/BL6 wild-type mice were injected with reserpine (1 mg/kg i.p.) or 6-OHDA as described above. […] Animals were tested 18-24 hours after reserpine injections and 48-60 hours after 6-OHDA injections. […]
# (§4) To test catalepsy, a horizontal bar (2 mm diameter) was placed 4 cm above the ground. […] Descent latency was measured as the delay to when either both paws were removed from the bar or one paw touched the ground. […]
# tyrosine hydroxylase = assay: Tyrosine hydroxylase staining of striatum after 6-OHDA; type: in vivo, mouse; conditions: 48 hours after bilateral 6-OHDA injection (5 μg/μL, 2 μL/side)
# Method: as §2
# Tyrosine hydroxylase staining. The degree of dopamine denervation was assessed at 48 hours post-injection in a subset of 6-OHDA-treated mice by tyrosine hydroxylase (TH) staining. Mouse forebrains were fixed at 4° C. for 1 hour in 4% paraformaldehyde (in PBS), and then kept in PBS overnight at 4° C. Brains were transferred to 30% sucrose (in PBS) for 2 hours, blocked in O.C.T. and frozen. […] coronal slices containing the striatum were collected on slides using a cryostat. […] Images were acquired on a Zeiss Axioskop 2 coupled to a Hamamatsu CCD and analyzed using Metamorph software.
# 6-OHDA-treated mice [3] = conditions: mouse, in vivo
# Method: as §1, §2, §3, §4
# [4] = tested on: indirect-pathway synapses; assay: DHPG-elicited depression of EPSCs (eCB-LTD), indirect pathway; type: cell-based, mouse
# direct-pathway synapses [5] = assay: DHPG-elicited depression of EPSCs (eCB-LTD), direct pathway; type: cell-based, mouse; conditions: DHPG 100 μM for 10 min, MSNs held at +50 mV (so in the source)
# reserpine-treated mice [6] = assay: Catalepsy bar test in reserpine-treated mice; type: in vivo, mouse
# Method: as §1
# (§5) Reserpine treatment. To study the effects of dopamine depletion, reserpine (Sigma-Aldrich) was dissolved in 1% glacial acetic acid at a concentration of 2.5 mg/mL. This solution was diluted with dH20 by a factor of 10, to yield a final concentration of 0.1% glacial acetic acid and 250 μg/mL reserpine This reserpine solution was injected i.p. at a concentration of 1 mg/kg or 5 mg/kg as stated in the text.
# (§6) Behavior. 3- to 4-week-old C57/BL6 wild-type mice were injected with reserpine (1 mg/kg i.p.) or 6-OHDA as described above. […] Animals were tested 18-24 hours after reserpine injections and 48-60 hours after 6-OHDA injections. […] All drugs were injected i.p. in 0.9% NaCl at a volume of 20 μL/gm. The injection solution for URB597 was prepared by diluting a stock solution prepared in DMSO into saline, with a final concentration of 0.5% DMSO. Animals were then tested again at 45-60 minutes following drug injections. […]
# as §4
# reserpine-treated mice [7] = assay: Open-field locomotor activity in reserpine-treated mice; type: in vivo, mouse
# Method: as §1, §5, §6, §4
# [8] = tested on: indirect-pathway MSN synapses; assay: LTD induced by tetanic stimulation in striatal slices from reserpine-treated mice; type: cell-based, mouse
# medium spiny neurons = assay: Effect of drug wash-in alone on EPSC amplitudes in striatal MSNs; type: cell-based, mouse; conditions: URB597 1 μM; URB754 5 μM
# direct pathway neurons = assay: LTD induction at direct pathway synapses in striatal slices; type: cell-based, mouse; conditions: URB754 5 μM
# [9] = tested on: indirect-pathway synapses; assay: Presynaptic inhibition of EPSCs by CB1 receptor agonist, indirect pathway; type: cell-based, mouse; conditions: WIN55,212 1 μM
# direct-pathway synapses [10] = assay: Presynaptic inhibition of EPSCs by CB1 receptor agonist, direct pathway; type: cell-based, mouse; conditions: WIN55,212 1 μM; control mice
# MSNs = assay: Block of carbachol-induced inward membrane current in MSNs; type: cell-based, mouse; conditions: pirenzepine; data not shown
# Text: FIG. 5. […] The arrow marks the time of LTD induction. […] Error bars are ±SEM.
# striatal dopamine = conditions: 18-24 hours after reserpine injection; cited from earlier work
# [11] = tested on: indirect-pathway MSN synapses; assay: LTD induced by high-frequency afferent stimulation, whole-cell recording in striatal slices of control mice; type: cell-based, mouse; conditions: indirect-pathway MSNs; AM251 1 μM; sulpiride 10 μM; methysergide 4 μM, GR125487 1 μM, LY278584 1 μM, prazosin 2 μM, propranolol 1 μM; without drug 51±5%
smiles,measurement,setting,value
"NCCc1cc(O)c(O)cc1O [6-OHDA, 6-hydroxydopamine]","EPSC after LTD induction, % of baseline at 30-40 min",[1],111±13 % of baseline
same,"Descent latency, catalepsy bar test","6-OHDA-treated mice [2]; mouse, in vivo",45 ± 4 s
same,Immunoreactivity for tyrosine hydroxylase in the striatum,tyrosine hydroxylase,34±4 % of control
same,"Distance traveled in 15 min, open field",6-OHDA-treated mice [3],236±52 cm
"N[C@H](C(=O)O)c1cc(O)cc(O)c1 [DHPG, (S)-3,5-dihydroxyphenylglycine]","EPSC, % of baseline at 20-30 min after brief DHPG application","[4]; DHPG 100 μM for 1 min, alone or in the presence of quinpirole 10 μM or URB754",98±5 % of baseline
same,"EPSC, % of baseline at 30-40 min","[4]; DHPG 100 μM for 10 min, MSNs held at +50 mV (so in the source)",64±5 % of baseline
same,"EPSC, % of baseline at 30-40 min",direct-pathway synapses [5],95±9 % of baseline
NC(=O)c1cccc(-c2cccc(OC(=O)NC3CCCCC3)c2)c1 [URB597],"EPSC after LTD induction, % of baseline at 30-40 min",[1],55±7 % of baseline
same,"Descent latency, catalepsy bar test","6-OHDA-treated mice [2]; mouse, in vivo",no significant decrease in catalepsy
same,"Distance traveled in 15 min, open field",6-OHDA-treated mice [3],no significant decrease in catalepsy or increase in locomotor activity
same,"Descent latency, catalepsy bar test","reserpine-treated mice [6]; mouse, in vivo",no significant decrease in catalepsy
same,"Distance traveled in 15 min, open field","reserpine-treated mice [7]; mouse, in vivo",no significant decrease in catalepsy or increase in locomotor activity
same,"EPSC after LTD induction, % of baseline at 30-40 min",[8],62±5 % of baseline
same,Effect of drug alone on EPSC amplitudes / synaptic transmission,medium spiny neurons,no effect
Cc1ccc(Nc2nc3ccc(C)cc3c(=O)o2)cc1 [URB754],"EPSC after LTD induction, % of baseline at 30-40 min",[1],69±9 % of baseline
same,LTD at direct pathway neurons in the presence of drug,direct pathway neurons,nor did it unmask LTD
same,"Descent latency, catalepsy bar test","6-OHDA-treated mice [2]; 6-OHDA-treated mice, URB754 1.5 mg/kg i.p., quinpirole 1.5 mg/kg i.p., alone or coadministered",no significant decrease in catalepsy
same,"Distance traveled in 15 min, open field",6-OHDA-treated mice [3],no significant decrease in catalepsy or increase in locomotor activity
same,"Descent latency, catalepsy bar test","reserpine-treated mice [6]; reserpine-treated mice, URB754 1.5 mg/kg i.p., quinpirole 1.5 mg/kg i.p., alone or coadministered",no significant decrease in catalepsy
same,"EPSC, % of baseline at 20-30 min after brief DHPG application",[4],84±6 % of baseline
same,"Distance traveled in 15 min, open field","reserpine-treated mice [7]; mouse, in vivo",no significant decrease in catalepsy or increase in locomotor activity
same,"EPSC after LTD induction, % of baseline at 30-40 min",[8],68±13 % of baseline
same,Effect of drug alone on EPSC amplitudes / synaptic transmission,medium spiny neurons,no effect
"Cc1c(C(=O)c2cccc3ccccc23)c2cccc3c2n1[C@H](CN1CCOCC1)CO3 [WIN55,212]","EPSC, % of baseline at 15-20 min after wash-in",[9]; control mice,47±7 % of baseline
same,"EPSC, % of baseline at 15-20 min after washing",[9]; dopamine-depleted animals (reserpine and 6-OHDA pooled),58±5 % of baseline
same,"EPSC, % of baseline at 15-20 min after wash-in",direct-pathway synapses [10],56±8 % of baseline
CN1CCN(CC(=O)N2c3ccccc3C(=O)Nc3cccnc32)CC1 [pirenzepine],Block of carbachol-induced inward membrane current,MSNs,block a carbachol-induced inward membrane current
COC(=O)[C@H]1[C@H]2C[C@@H]3c4[nH]c5cc(OC)ccc5c4CCN3C[C@H]2C[C@@H](OC(=O)c2cc(OC)c(OC)c(OC)c2)[C@@H]1OC [reserpine],Striatal dopamine,striatal dopamine,< 1 % of normal levels
same,"Descent latency, catalepsy bar test","reserpine-treated mice [6]; reserpine 1 mg/kg i.p. 18-24 h before, URB597 1 mg/kg i.p., quinpirole 1.5 mg/kg i.p., alone or together, 60 s maximum, reserpine line = before drug",more than 60 s
same,"Distance traveled in 15 min, open field","reserpine-treated mice [7]; reserpine 1 mg/kg i.p. 18-24 h before, URB597 1 mg/kg i.p., quinpirole 1.5 mg/kg i.p., 45-60 min after injection, reserpine line = before drug",48±11 cm
same,"EPSC after LTD induction, % of baseline at 30-40 min","[8]; mice given reserpine 5 mg/kg i.p. 18-24 h earlier, in bath quinpirole 10 μM, URB597 1 μM or URB754 5 μM, reserpine line = no drug in bath",122±8 % of baseline
CCN1CCCC1CNC(=O)c1cc(S(N)(=O)=O)ccc1OC (centres unmarked) [sulpiride],"EPSC after LTD induction, % of baseline at 30-40 min",[11],96±12 % of baseline
